One test has as its system A549. As to the kind of experiment: Cell-based assay, anti-proliferative activity (Cell Counting Kit-8, 72 hours). As to conditions: read-out: IC50 (μM) A549. The method, boiled down: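 Growth read-out after inhibitor treatment of plated cells; potency expressed as IC50.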
In general terms: Tetrazolium assays rely on reduction of a dye to a coloured formazan, in cell work by metabolically active cells.

For the next test, the system named is CCD-18Co. Described as above. As to conditions: read-out: IC50 (μM) CCD-18Co. The method, boiled down:
(§1)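 CCK-8 growth read-out at 72 h post compound exposure; 96-well seeding. IC50 from 8-point dilution (0–100 micro-M, twofold steps from 1.5625 micro-M).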

The next test concerns HCT-116. The test is described as above. As to conditions: read-out: IC50 (μM) HCT-116. A digest of the protocol: as §1
Another test relates to HFL1. The description is as above. As to conditions: read-out: IC50 (μM) HFL1. A digest of the protocol: as §1
The next test has as its system PC14. The description is as above. As to conditions: read-out: IC50 (μM) PC14. The method, boiled down: as §1
For another test, the target named is SUV39H2 (Homo sapiens (Human), UniProt Q9H5I1). As to conditions: read-out: IC50 (μM) Suv 39H2 assay; enzyme assay.
[1] abbreviates: Homo sapiens, A549 cells, Cell Counting Kit-8, 72 hours.
Where [2] appears, read: Homo sapiens, CCD-18Co cells, Cell Counting Kit-8, 72 hours.
Where [3] appears, read: Homo sapiens, HCT-116 cells, Cell Counting Kit-8, 72 hours.
The mark [4] stands for this setting: Homo sapiens, HFL1 cells, Cell Counting Kit-8, 72 hours.
[5] abbreviates: Homo sapiens, PC-14, PC14 cells, Cell Counting Kit-8, 72 hours.
Where [6] appears, read: Homo sapiens, A549 cells, 72 hours, Cell Counting Kit-8.
The mark [7] stands for this setting: Homo sapiens, CCD-18Co cells, 72 hours, Cell Counting Kit-8.
[8] abbreviates: Homo sapiens, HCT-116 cells, 72 hours, Cell Counting Kit-8.
Where [9] appears, read: Homo sapiens, HFL1 cells, 72 hours, Cell Counting Kit-8.
Where [10] appears, read: Homo sapiens, PC-14, PC14 cells, 72 hours, Cell Counting Kit-8.

Where a name gives a salt, the structure may show the parent alone. Read-outs that look alike come from different tables or passages of the source.

SUV39H2, sequence (Q9H5I1 whole entry): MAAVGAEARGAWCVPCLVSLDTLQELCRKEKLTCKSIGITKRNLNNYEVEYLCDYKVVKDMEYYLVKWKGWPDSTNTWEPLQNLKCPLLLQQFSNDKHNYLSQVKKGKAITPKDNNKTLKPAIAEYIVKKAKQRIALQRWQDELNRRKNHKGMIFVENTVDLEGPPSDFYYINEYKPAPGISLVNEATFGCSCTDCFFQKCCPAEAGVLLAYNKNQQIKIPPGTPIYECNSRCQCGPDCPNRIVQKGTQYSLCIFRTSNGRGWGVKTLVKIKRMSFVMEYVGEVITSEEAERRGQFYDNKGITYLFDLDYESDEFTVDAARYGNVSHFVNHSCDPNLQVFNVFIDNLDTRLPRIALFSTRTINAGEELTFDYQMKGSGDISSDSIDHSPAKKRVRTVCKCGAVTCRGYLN

Take `COc1cc(OC)c(-c2cn3ccc(N4CCN(CCN(C)C)CC4)cc3n2)cc1Cl` [Example 88, 2-(4-(2-(5-chloro-2,4-dimethoxyphenyl)imidazo[1,2-a]pyridin-7-yl)piperazin-1-yl)-N,N-dimethylethanamine]: the 50% inhibitory concentration (IC50) (usually the concentration at which inhibition is half-maximal) in the test with A549 (setting [1]) was 3.3 µM; in the test on CCD-18Co (setting [2]), 5.6 µM; with HCT-116 (setting [3]) it was 3.9 µM; with HFL1 (setting [4]) it was 3 µM; in the test on PC14 (setting [5]), 2.9 µM; on SUV39H2, 0.00884 µM.
Take `COc1cc(OCCCN(C)C)c(-c2cn3ccc(N4CCC(NS(C)(=O)=O)CC4)cc3n2)cc1Cl` [Example 164, N-(1-(2-(5-chloro-2-(3-(dimethylamino)propoxy)-4-methoxyphenyl)-imidazo[1,2-a]pyridin-7-yl)piperidin-4-yl)methanesulfonamide]: the IC50 turned out to be 10 µM with A549 (setting [1]); 7.2 µM in the test with CCD-18Co (setting [2]); 9 µM in the test on HCT-116 (setting [3]); 8.6 µM in the test on HFL1 (setting [4]); 8.8 µM in the test on PC14 (setting [5]); 0.0211 µM at SUV39H2.
As for `COc1cc(OC)c(-c2cn3ccc(N4CCN(P(=O)(OC)OC)CC4)nc3n2)cc1Cl` [Example 218, dimethyl (4-(2-(5-chloro-2,4-dimethoxyphenyl)imidazo[1,2-a]pyrimidin-7-yl)piperazin-1-yl)phosphonate], the IC50 worked out at 6.5 µM in the test with A549 (Homo sapiens, A549, 72 h); 10 µM in the test on CCD-18Co (Homo sapiens, CCD-18Co, 72 h); 5.6 µM with HCT-116 (Homo sapiens, HCT-116, 72 h); 10 µM in the test on HFL1 (Homo sapiens, HFL1, 72 h); 3.4 µM in the test with PC14 (Homo sapiens, PC-14, 72 h); 0.0111 µM on SUV39H2.
With `CCOP(=O)(CCN1CC=C(c2ccn3cc(-c4cc(Cl)c(OC)cc4OC)nc3c2)CC1)OCC` [Example 194, diethyl (2-(4-(2-(5-chloro-2,4-dimethoxyphenyl)imidazo[1,2-a]pyridin-7-yl)-5,6-dihydropyridin-1(2H)-yl)ethyl)phosphonate], the IC50 was found to be 9 µM in the test on A549 (setting [1]); 10 µM with CCD-18Co (setting [2]); 8.6 µM in the test with HCT-116 (setting [3]); 10 µM in the test on HFL1 (setting [4]); 5.7 µM in the test on PC14 (setting [5]); 0.0696 µM on SUV39H2.
For the molecule “1-(4-(2-(5-chloro-2-(3-(dimethylamino)propoxy)-4-methoxyphenyl)-imidazo[1,2-a]pyridin-7-yl)piperazin-1-yl)-2,2-dimethylpropan-1-one [Example 154]”, the IC50 in the test with A549 (A549 cells, Cell Counting Kit-8, 72 hours) was 6.9 µM; with CCD-18Co (CCD-18Co cells, Cell Counting Kit-8, 72 hours) it was 8.7 µM; in the test on HCT-116 (HCT-116 cells, Cell Counting Kit-8, 72 hours), 7.9 µM; in the test with HFL1 (HFL1 cells, Cell Counting Kit-8, 72 hours), 4.3 µM; in the test with PC14 (PC14 cells, Cell Counting Kit-8, 72 hours), 8 µM; on SUV39H2 it was 0.0135 µM.
Turning to `COc1cc(OC)c(-c2cn3cc(NCCN)c(C)cc3n2)cc1Cl` [Example 78, N^1-(2-(5-chloro-2,4-dimethoxyphenyl)-7-methylimidazo[1,2-a]pyridin-6-yl)ethane-1,2-diamine], the IC50 in the test with A549 (Homo sapiens, A549, 72 h) was determined as 6.3 µM; in the test with CCD-18Co (Homo sapiens, CCD-18Co, 72 h), 5.7 µM; in the test with HCT-116 (Homo sapiens, HCT-116, 72 h), 5.6 µM; in the test with HFL1 (Homo sapiens, HFL1, 72 h), 2.7 µM; in the test on PC14 (Homo sapiens, PC-14, 72 h), 6.1 µM; on SUV39H2, 0.00431 µM.
Take `COc1cc(OC)c(-c2cn3ccc(N4CCN(CCF)CC4)cc3n2)cc1Cl` [Example 104, 2-(5-chloro-2,4-dimethoxyphenyl)-7-(4-(2-fluoroethyl)piperazin-1-yl)-imidazo[1,2-a]pyridine]: the IC50 came out at 6.7 µM in the test on A549 (setting [1]); 8.9 µM with CCD-18Co (setting [2]); 8.3 µM in the test on HCT-116 (setting [3]); 4.2 µM in the test on HFL1 (setting [4]); 4.7 µM in the test with PC14 (setting [5]); 0.00666 µM at SUV39H2.
On to `CCCS(=O)(=O)N1CCN(c2ccn3cc(-c4cc(Cl)c(OC)cc4OC)nc3c2)CC1` [Example 170, 2-(5-chloro-2,4-dimethoxyphenyl)-7-[4-(propylsulfonyl)piperazin-1-yl]imidazo[1,2-a]pyridine], for which the IC50 worked out at 1.7 µM with A549 (setting [1]); 2.6 µM with CCD-18Co (setting [2]); 2.1 µM in the test with HCT-116 (setting [3]); 1.9 µM in the test on HFL1 (setting [4]); 1.6 µM in the test with PC14 (setting [5]); 0.0219 µM on SUV39H2.
Regarding `CCOP(=O)(CCN1CCCN(c2ccn3cc(-c4cc(Cl)c(OC)cc4OC)nc3c2)CC1)OCC` [Example 210, diethyl (2-(4-(2-(5-chloro-2,4-dimethoxyphenyl)imidazo[1,2-a]pyridin-7-yl)-1,4-diazepan-1-yl)ethyl)phosphonate], the IC50 with A549 (setting [1]) is 10 µM; in the test on CCD-18Co (setting [2]), 5.5 µM; in the test on HCT-116 (setting [3]), 10 µM; in the test with HFL1 (setting [4]) it was 7.2 µM; in the test on PC14 (setting [5]) it was 4.5 µM; at SUV39H2, 0.0029 µM.
As to `COc1cc(OC)c(-c2cn3ccc(N[C@H]4CC[C@H](CN5CCN(S(C)(=O)=O)CC5)CC4)cc3n2)cc1Cl` [Example 289, 2-(5-chloro-2,4-dimethoxyphenyl)-trans-N-(4-((4-(methylsulfonyl)piperazin-1-yl)methyl)cyclohexyl)imidazo-[1,2-a]pyridin-7-amine], the IC50 in the test with A549 (setting [6]) was found to be 0.63 µM; in the test with CCD-18Co (setting [7]), 0.72 µM; with HCT-116 (setting [8]), 0.83 µM; in the test on HFL1 (setting [9]), 0.74 µM; in the test with PC14 (setting [10]) it was 0.77 µM; at SUV39H2, 0.028 µM.
Consider `COc1cc(OC)c(-c2cn3ccc(N4CCCN(C(=O)OC(C)(C)C)CC4)cc3n2)cc1Cl` [Example 184, tert-butyl 4-[2-(5-chloro-2,4-dimethoxyphenyl)imidazo[1,2-a]pyridin-7-yl]-1,4-diazepane-1-carboxylate], for which the IC50 in the test on A549 (setting [1]) worked out at 3.8 µM; in the test on CCD-18Co (setting [2]), 4.9 µM; with HCT-116 (setting [3]), 5.7 µM; with HFL1 (setting [4]), 2.2 µM; in the test with PC14 (setting [5]) it was 2.5 µM; on SUV39H2, 0.0285 µM.
On to `COc1cc(OC)c(-c2cn3ccc(N4CCN(c5cccc(F)n5)CC4)cc3n2)cc1Cl` [Example 281, 2-(5-chloro-2,4-dimethoxyphenyl)-7-(4-(6-fluoropyridin-2-yl)piperazin-1-yl)imidazo[1,2-a]pyridine], for which the IC50 in the test with A549 (setting [6]) turned out to be 1.2 µM; in the test with CCD-18Co (setting [7]), 0.83 µM; in the test with HCT-116 (setting [8]) it was 0.82 µM; in the test on HFL1 (setting [9]) it was 0.76 µM; in the test on PC14 (setting [10]) it was 0.9 µM; on SUV39H2, 0.0988 µM.
On to `COc1cc(OCCCN(C)C)c(-c2cn3ccc(N4CCN(C(=O)OC(C)(C)C)CC4)cc3n2)cc1Cl` [Example 127, tert-butyl 4-(2-{5-chloro-2-[3-(dimethylamino)propoxy]-4-methoxyphenyl}imidazo[1,2-a]pyridin-7-yl)piperazine-1-carboxylate], for which the IC50 was determined as 1.6 µM in the test with A549 (setting [1]); 0.83 µM in the test with CCD-18Co (setting [2]); 1.2 µM in the test on HCT-116 (setting [3]); 0.5 µM in the test on HFL1 (setting [4]); 1.6 µM with PC14 (setting [5]); 0.0995 µM at SUV39H2.
For `COc1cc(OC)c(-c2cn3ccc(N4CCC[C@@H](N)C4)cc3n2)cc1Cl` [Example 30, (R)-1-(5-chloro-2,4-dimethoxyphenyl)imidazo[1,2-a]pyridine-7-yl)piperidin-3-amine dihydrochloride], the 50% inhibitory concentration (IC50) with A549 (setting [1]) came to 3.4 µM; in the test on CCD-18Co (setting [2]), 3.9 µM; with HCT-116 (setting [3]), 5.1 µM; in the test with HFL1 (setting [4]), 2 µM; in the test on PC14 (setting [5]), 2.3 µM; at SUV39H2 it was 0.009 µM.
For `COc1cc(OC)c(-c2cn3ccc(N4CCC(NC(=O)OC(C)(C)C)C4)cc3n2)cc1Cl` (stereo not drawn) [Example 23, tert-butyl{1-[2-(5-chloro-2,4-dimethoxyphenyl)imidazo[1,2-a]pyridin-7-yl]pyrrolidin-3-yl}carbamate], the IC50 in the test on A549 (setting [1]) is 2.4 µM; with CCD-18Co (setting [2]) it was 2.8 µM; in the test with HCT-116 (setting [3]) it was 1.8 µM; with HFL1 (setting [4]), 1.2 µM; in the test on PC14 (setting [5]), 1.7 µM; at SUV39H2, 0.00635 µM.
Take `COc1cc(OCCCN(C)C)c(-c2cn3ccc(N4CCCN(S(C)(=O)=O)CC4)cc3n2)cc1Cl` [Example 213, 3-(4-chloro-2-(7-(4-(methylsulfonyl)-1,4-diazepan-1-yl)imidazo-[1,2-a]pyridin-2-yl)-5-methoxyphenoxy)-N,N-dimethylpropan-1-amine]: the IC50 was found to be 10 µM with A549 (setting [6]); 10 µM in the test with CCD-18Co (setting [7]); 5.5 µM with HCT-116 (setting [8]); 7.4 µM with HFL1 (setting [9]); 9.1 µM in the test on PC14 (setting [10]); 0.0145 µM on SUV39H2.

The record behind these values is US10508109B2 (priority 2015, dated 2019).
